The conditions of data set [1]: ob/ob and db/db mice, 8 day administration; cited from earlier work.
Data set [2] has as its system AMPK. Kind of data set: AMPK activation in hepatocyte cells. It is filed as cell-based. The note with it: different doses, FIG. 1. The text has this: The AMPK activation in hepatocytes is given in the gel electrophoresis pictures. The supplemental diagram visualizes the degree of AMPK activation in hepatocytes quantitatively.
The test system of data set [3] is AMPK. Nature of the data set: AMPK activation in muscle cells. Type of data set: cell-based. The note with it: different doses, FIG. 2.
The next data set deals with synaptopodin (G1D4). Kind of data set: Glomerular synaptopodin (G1D4) fraction in the kidney of ZDF rats. It is filed as in vivo, rat. The note with it: ZDF fatty rats, age 19 weeks; for Glomerular synaptopodin (G1D4) fraction, Positive Area (%): 2 × 25 mg/kg/d p.o., mean ± SEM. On the procedure:
Synaptopodin (G1D4) was detected with a monoclonal mouse IgG antibody (#61094, Progen). For each rat, 40 glomeruli out of two consecutive sections were selected at random. The synaptopodin (G1D4) positive area in the mesangium was measured with the Ariol SL-50 automated microscope (Applied Imaging Int. Ltd.) scanning sections at X20 (scale x/y: 1 pixel=0.36×0.36 μm^2) and setting a circular measure field of 2400 μm^2 in the centre of the glomerulus. The positive labeled area of synaptopodin (G1D4) was calculated as percentage of tissue area in the measure field. For each animal, the mean out of 40 glomeruli was calculated. Statistical comparisons were performed by unpaired Mann-Whitney-test. Data are mean±SEM.
The antibody clone G1D4 recognized differentiated podocytes (glomerular visceral epithelial cells).

For data set [4], the system named is human micro-vascular endothelial cells (HMEC-1). Nature of the data set: ROS production in HMEC-1. Type of data set: cell-based. On the procedure: (§1) The efficacy of 5,6-dihydro-4-dimethylamino-2-imino-6-methyl-1,3,5-triazine was tested if once administrated (50 mg/kg/day) to drinking water of fasted Wistar rats for at least 10 days. This approach was more physiological than subcutaneous injection at elevated dose. […] The effect was observed both in rat liver (FIG. 4) and in human micro-vascular endothelial cells (HMEC; Table 2).

For data set [5], the system named is ROS production linked to the reverse electron flux through complex I. Kind of data set: ROS production in rat liver after oral administration. It is filed as in vivo. The note with it: fasted Wistar rats, 50 mg/kg/day in drinking water for at least 10 days, succinate alone or with glutamate/malate. On the procedure: as §1

These results are taken from US9035048B2, “Tetrahydrotriazine compounds for treating diseases associated with AMPK activity” (POXEL, priority 2008, dated 2015).

The structures appear in SMILES notation. Entries after “also recorded” stand apart in the source; their conditions may differ.

Regarding `NC(=O)c1ncn([C@@H]2O[C@H](CO)[C@@H](O)[C@H]2O)c1N` [AICAR, 5-aminoimidazole-4-caboxamide-1beta-riboside], in data set [1], the “reduction of blood glucose” value is recorded as 35%.

For `CC1NC(=N)N=C(N(C)C)N1` (centres unmarked) [EMD008, 5,6-dihydro-4-dimethylamino-2-imino-6-methyl-1,3,5-triazine], the “AMPK activation in hepatocytes” value in the data set on AMPK [2] was “significant activation of AMPK”. Besides, in the data set on AMPK [3], the “AMPK activity in muscle cells” value was “significantly increased AMPK activity; also recorded: dose dependent and even stronger than metformin's effect”. Moreover, the “glomerular fraction of synaptopodin (effect of treatment in words)” value in the data set on synaptopodin (G1D4) was “moderately increased”. In addition, the “Glomerular synaptopodin (G1D4) fraction, Positive Area (%)” value in the data set on synaptopodin (G1D4) came out at 45 ± 3%. Further, the “ROS production, H2O2” value in data set [4] (substrate GMS, additions: None) is recorded as 15.7 ± 1.4 pmol/min/10^7 HMEC-1 cells; in data set [4] (substrate GMS, additions: Rot + antimycin A (AA)), 18.6 ± 1.3 pmol/min/10^7 HMEC-1 cells; in data set [4] (substrate GMS, additions: Rotenone (Rot)), 6.9 ± 1.1 pmol/min/10^7 HMEC-1 cells; in data set [4] (substrate Glutamate + Malate (GM), additions: None) it was 28.4 ± 2.2 pmol/min/10^7 HMEC-1 cells; in data set [4] (substrate Glutamate + Malate (GM), additions: Rot + antimycin A (AA)), 51.4 ± 8.7 pmol/min/10^7 HMEC-1 cells; in data set [4] (substrate Glutamate + Malate (GM), additions: Rotenone (Rot)), 37.5 ± 1.5 pmol/min/10^7 HMEC-1 cells. The “ROS production, H2O2” value in data set [4] (substrate Succinate (S), additions: None) is reported as 14.5 ± 1.3 pmol/min/10^7 HMEC-1 cells; in data set [4] (substrate Succinate (S), additions: Rot + antimycin A (AA)) it was 19.1 ± 3.2 pmol/min/10^7 HMEC-1 cells; in data set [4] (substrate Succinate (S), additions: Rotenone (Rot)) it was 11.4 ± 2.7 pmol/min/10^7 HMEC-1 cells. Further, in data set [5], the “ROS production linked to the reverse electron flux through complex I” value is recorded as “time-dependently inhibited the ROS production”.

Consider `CN(C)C(=N)NC(=N)N` [Metformin, reference compound], for which, in the data set with synaptopodin (G1D4), the “glomerular fraction of synaptopodin (effect of treatment in words)” value is on record as “no effect” and the “Glomerular synaptopodin (G1D4) fraction, Positive Area (%)” value is given as 38 ± 4%.
